Assay results from patent US6362203B1, “4-hydroxy-4-phenylpiperidine derivatives and pharmaceuticals containing the same” (SSP Co., LTD, priority 1999, dated 2002).

What was measured:
[1] = system: opioid receptor; conditions: agonist activity relative to DAMGO (=1.0); guinea pig ileum longitudinal muscle sample
Protocol: Test 1: Action on the ileum sample excised from a guinea pig
A Hartley male guinea pig of about 500 g in weight was employed. From its ileocecum, 15 to 30 cm of the ileum was excised and a longitudinal muscle sample attached with the Auerbach's plexus was prepared. […] The agonist activity was indicated in terms of relative potency to DAMGO ([D-Ala^2, N-MePhe^4, Gly^5-ol]-enkephalin), a selective μ-opioid agonist.

| SMILES | melting point | Relative potency [1] |
| --- | --- | --- |
| CN(C)C(=O)C(CCN1CCC(O)(c2ccccc2OCCCCCCO)CC1)(c1ccccc1)c1ccccc1.Cl | 110 °C | – |
| C[C@@H](NC(=O)[C@@H](N)Cc1ccc(O)cc1)C(=O)NCC(=O)N(C)[C@@H](Cc1ccccc1)C(=O)NCCO [DAMGO, [D-Ala^2, N-MePhe^4, Gly^5-ol]-enkephalin] | – | 1.0 |
| CN(C)C(=O)C(CCN1CCC(O)(c2cccc(O)c2)CC1)(c1ccccc1)c1ccccc1 | 169 °C | – |
| CN(C)C(=O)C(CCN1CCC(O)(c2ccc(O)cc2)CC1)(c1ccccc1)c1ccccc1 | 155 °C | – |
| CCCCNC(=O)C(CCN1CCC(O)(c2ccccc2OCCO)CC1)(c1ccccc1)c1ccccc1 | 130 to 131 °C | – |
